We go through 14 compounds from ChEMBL document CHEMBL1125705, “Imidazo[4,5-b]quinoxaline cyanines as neurokinin antagonists” (J Med Chem, 1991).

Usually IC50 stands for the concentration needed to halve the response being measured. Low readings indicate greater potency, high ones weaker potency.

In one experiment the target is T1, Substance-K receptor (Rattus norvegicus, UniProt P16610).
T1 sequence (P16610 whole entry): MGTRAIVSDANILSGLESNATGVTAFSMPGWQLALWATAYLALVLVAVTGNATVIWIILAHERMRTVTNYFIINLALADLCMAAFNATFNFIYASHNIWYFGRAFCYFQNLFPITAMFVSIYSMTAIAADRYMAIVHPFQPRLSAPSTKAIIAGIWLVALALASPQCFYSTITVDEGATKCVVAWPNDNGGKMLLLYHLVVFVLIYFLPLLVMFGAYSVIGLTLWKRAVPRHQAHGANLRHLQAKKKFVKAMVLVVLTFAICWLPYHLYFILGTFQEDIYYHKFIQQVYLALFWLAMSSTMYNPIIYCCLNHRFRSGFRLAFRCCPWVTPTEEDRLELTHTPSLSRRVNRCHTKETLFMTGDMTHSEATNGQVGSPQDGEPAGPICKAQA
As to the kind of experiment: Binding affinity of compound was evaluated towards tachykinin receptor 2 by using radioligand ([125I]-NKA in rat duodenum.

The next experiment concerns the target T2, Neuromedin-K receptor (Rattus norvegicus, UniProt P16177).
T2 sequence (P16177 whole entry): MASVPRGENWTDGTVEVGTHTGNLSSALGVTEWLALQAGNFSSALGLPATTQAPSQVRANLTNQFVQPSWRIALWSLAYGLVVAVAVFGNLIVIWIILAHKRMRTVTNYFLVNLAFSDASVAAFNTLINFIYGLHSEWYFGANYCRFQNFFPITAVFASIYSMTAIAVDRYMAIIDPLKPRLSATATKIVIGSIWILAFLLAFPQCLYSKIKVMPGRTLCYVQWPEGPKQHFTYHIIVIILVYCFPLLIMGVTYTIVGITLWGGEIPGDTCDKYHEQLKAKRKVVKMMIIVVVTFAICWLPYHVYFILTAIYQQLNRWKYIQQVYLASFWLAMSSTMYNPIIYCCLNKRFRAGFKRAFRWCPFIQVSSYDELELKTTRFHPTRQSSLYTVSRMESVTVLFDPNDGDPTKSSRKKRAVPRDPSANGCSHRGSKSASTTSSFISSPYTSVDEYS
As to the kind of experiment: Binding affinity of compound was evaluated towards tachykinin receptor 3 by using radioligand [[…]]eledoisin in rat cortex.

The next experiment deals with Substance-P receptor (Rattus norvegicus, UniProt P14600). Nature of the experiment: Binding affinity for tachykinin receptor 1 from rat forebrain tissue, [125I]-BH-SP as radioligand.
Chain of Substance-P receptor (P14600 whole entry): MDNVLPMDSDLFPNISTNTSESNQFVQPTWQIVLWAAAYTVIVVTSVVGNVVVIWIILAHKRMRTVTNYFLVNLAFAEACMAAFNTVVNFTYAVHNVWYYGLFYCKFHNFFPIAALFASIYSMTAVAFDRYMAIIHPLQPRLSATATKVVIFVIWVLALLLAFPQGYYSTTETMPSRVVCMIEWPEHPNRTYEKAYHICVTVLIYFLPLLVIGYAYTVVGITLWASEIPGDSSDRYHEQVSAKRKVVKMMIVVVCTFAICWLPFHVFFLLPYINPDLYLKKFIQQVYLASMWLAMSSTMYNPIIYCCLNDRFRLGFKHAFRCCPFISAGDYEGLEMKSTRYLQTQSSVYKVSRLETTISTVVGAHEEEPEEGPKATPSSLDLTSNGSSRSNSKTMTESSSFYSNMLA

In the case of `CCn1c(/C=C/C=C2\N(C)c3ccccc3C2(C)C)[n+](CC)c2nc3ccccc3nc21`, the IC50 at Substance-K receptor stood at 1700 nM; on Neuromedin-K receptor, 3300 nM. For `CCn1c(/C=C/C=C2\Sc3ccccc3N2C)[n+](CC)c2nc3ccccc3nc21`, the IC50 at Substance-P receptor was found to be 700 nM. For `CCOC(=O)CCC[n+]1c(/C=C/C=C2/N(C)c3ccccc3C2(C)C)n(CC)c2nc3ccccc3nc21`, the IC50 on Substance-P receptor worked out at 850 nM. The compound `CCn1c(/C=C/C=C/N2CCCC2)[n+](CC)c2nc3ccccc3nc21` showed an IC50 on Substance-P receptor above 10000 nM. The same measure, in the same setting: the result for `CCn1c(/C=C/C=C2/N(C)c3ccccc3C2(C)C)[n+](CCCO)c2nc3ccccc3nc21` reads 350 nM; that for `CCn1c(/C=C/C=C2/N(C)c3ccccc3C2(C)C)[n+](CC)c2nc3cc(Cl)c(Cl)cc3nc21`, 1100 nM; that for `CCn1c(/C=C/C=C2/N(C)c3ccccc3C2(C)C)[n+](CCCC(=O)O)c2nc3ccccc3nc21`, 1400 nM. With `CCn1c(/C=C/C=C2/N(C)c3ccccc3C2(C)C)[n+](CCCOC(C)=O)c2nc3ccccc3nc21`, the IC50 on Substance-P receptor was 410 nM. Take `CCn1c(/C=C/C=C2/N(C)c3ccccc3C2(C)C)[n+](CCCN(C)C)c2nc3ccccc3nc21`: at Substance-P receptor, the IC50 was 1300 nM. Still for that read-out and setting: the result for `CCn1c(/C=C/C=C2/N(C)c3ccccc3C2(C)C)[n+](CC(N)=O)c2nc3ccccc3nc21` reads 2000 nM; that for `CCN1/C(=C/C=C/c2n(CC)c3nc4ccccc4nc3[n+]2CC)C(C)(C)c2ccccc21`, 390 nM; that for `CCn1c(/C=C/C=C2/N(CCO)c3ccccc3C2(C)C)[n+](CC)c2nc3ccccc3nc21`, 1000 nM. Consider `CCn1c(/C=C/C=C2\C3C=CCc4cccc(c43)N2C)[n+](CC)c2nc3ccccc3nc21` (stereo not given), for which, on Substance-P receptor, the IC50 was determined as 850 nM. On the same count and under the same terms, the result for `CCn1c(/C=C/C=C2/N(CC(=O)N(C)C)c3ccccc3C2(C)C)[n+](CC)c2nc3ccccc3nc21` reads 2600 nM.
